Test system: SARS-CoV-2
Assay: cell-based anti-viral assay using Vero E6 cell line, viral RNA by qRT-PCR
Conditions: Vero E6 cells, 48 h; for ΔCt (1 μM) / inhibition at 1 µM: 1 μM compound; for ΔCt (1 μM) / ΔCt (5 μM): increase in Ct vs no-drug control; for ΔCt (5 μM) / inhibition at 5 µM: 5 μM compound; for inhibition at 1 µM / inhibition at 5 µM: Severe acute respiratory syndrome coronavirus 2, Vero C1008, calculated from ΔCt; for inhibition at 1 µM: read-out: % SARS-CoV-2 Inactivation (1 μM); for inhibition at 5 µM: read-out: % SARS-CoV-2 Inactivation (5 μM)

Structure (SMILES)	ΔCt (1 μM)	ΔCt (5 μM)	inhibition at 1 µM [%]	inhibition at 5 µM [%]
Cn1c(Nc2ccccc2)nc2cc(F)c(F)cc21 [Example 38, 5,6-difluoro-1-methyl-N-phenyl-1H-benzo[d]imidazol-2-amine]	0.4	−0.1	< 3	< 3
FC(F)(F)c1cc(Nc2nc3c(C(F)(F)F)cccc3[nH]2)cc(C(F)(F)F)c1 [Example 34, N-(3,5-bis(trifluoromethyl)phenyl)-4-(trifluoromethyl)-1H-benzo[d]imidazol-2-amine]	13.1	15.1	> 99.9	100
O=S1(=O)CCC(Nc2nc3c(C(F)(F)F)cc(C(F)(F)F)cc3[nH]2)C1 (centres unmarked) [Example 20, 3-((4,6-bis(trifluoromethyl)-1H-benzo[d]imidazol-2-yl)amino)tetrahydrothiophene 1,1-dioxide]	1.7	3.7	< 3	> 90
CC(C)c1ccccc1Nc1nc2c(C(F)(F)F)cc(C(F)(F)F)cc2[nH]1 [Example 18, N-(2-isopropylphenyl)-4,6-bis(trifluoromethyl)-1H-benzo[d]imidazol-2-amine]	1.4	1.4	< 3	< 3
Fc1cc2nc(Nc3ccccc3)[nH]c2cc1F [Example 8, 5,6-difluoro-N-phenyl-1H-benzo[d]imidazol-2-amine]	3.1	4.2	90	> 90
FC(F)(F)c1cc(Nc2nc3ccc(C(F)(F)F)cc3[nH]2)cc(C(F)(F)F)c1 [Example 31, N-(3,5-bis(trifluoromethyl)phenyl)-6-(trifluoromethyl)-1H-benzo[d]imidazol-2-amine]	5.3	9	> 95	> 99
CN(c1cc(C(F)(F)F)cc(C(F)(F)F)c1)c1nc2cccc(C(F)(F)F)c2[nH]1 [Example 44, N-(3,5-bis(trifluoromethyl)phenyl)-N-methyl-7-(trifluoromethyl)-1H-benzo[d]imidazol-2-amine]	1.4	5	< 3	> 95
Fc1cc2nc(NCc3ccccc3)[nH]c2cc1F [Example 13, N-benzyl-5,6-difluoro-1H-benzo[d]imidazol-2-amine]	1.3	1	< 3	< 3
CC(C)Nc1nc2c(C(F)(F)F)cc(C(F)(F)F)cc2[nH]1 [Example 15, N-isopropyl-4,6-bis(trifluoromethyl)-1H-benzo[d]imidazol-2-amine]	3.1	4.2	90	> 90
FC(F)(F)c1cc(C(F)(F)F)c2nc(Nc3cccnc3)[nH]c2c1 [Example 5, N-(pyridin-3-yl)-4,6-bis(trifluoromethyl)-1H-benzo[d]imidazol-2-amine]	1	1.2	< 3	< 3
FC(F)(F)c1cc(C(F)(F)F)c2nc(NC3CCOCC3)[nH]c2c1 [Example 7, N-(tetrahydro-2H-pyran-4-yl)-4,6-bis(trifluoromethyl)-1H-benzo[d]imidazol-2-amine]	0.9	−0.32	< 3	< 3
FC(F)(F)c1cc(C(F)(F)F)c2nc(Nc3ccc(Cl)cc3)[nH]c2c1 [Example 2, N-(4-chlorophenyl)-4,6-bis(trifluoromethyl)-1H-benzo[d]imidazol-2-amine]	4.4	6	> 90	> 95
FC(F)(F)c1cccc(Nc2nc3c(C(F)(F)F)cc(C(F)(F)F)cc3[nH]2)c1 [Example 14, 4,6-bis(trifluoromethyl)-N-(3-(trifluoromethyl)phenyl)-1H-benzo[d]imidazol-2-amine]	7.4	16	99	100
COc1ccc(Nc2nc3c(C(F)(F)F)cc(C(F)(F)F)cc3[nH]2)cc1Br [Example 4, N-(3-bromo-4-methoxyphenyl)-4,6-bis(trifluoromethyl)-1H-benzo[d]imidazol-2-amine]	2.7	6	< 3	> 95
